Measurements: patent US10821115B2, “Compounds that inhibit Mcl-1 protein” (priority 2017, dated 2020)
Where two headings read alike, the source gives them in different places.

Tests used:
[1] = system: human multiple myeloma cell line, OPM-2; test: Cell viability assay (OPM-2 10 FBS), CellTiter-Glo; format: cell-based
Summary of the method: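 3000 cells/well, RPMI 1640 + 10% FBS; serial compound dilutions, 16 h, 37 °C/5% CO2.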

[2] = biological target: recombinant human Mcl-1 (residues 171-327) / Bim interaction (Homo sapiens (Human), UniProt Q07820); test: biochemical; format: binding; conditions: TR-FRET, Mcl-1(171-327) / biotin-Bim (51-76); read-out: Mcl-1 HTRF IC50
Chain of recombinant human Mcl-1 (residues 171-327) / Bim interaction (Q07820 171-327): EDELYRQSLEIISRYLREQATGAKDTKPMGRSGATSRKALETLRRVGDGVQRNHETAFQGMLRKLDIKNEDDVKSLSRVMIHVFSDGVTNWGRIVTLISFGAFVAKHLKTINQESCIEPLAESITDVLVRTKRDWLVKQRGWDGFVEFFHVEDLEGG

[3] = Homo sapiens, OPM-2, 16 h, read-out: OPM-2 10% FBS IC50 IP, OPM-2 cells, 10% FBS, 16 h, CellTiter-Glo
[4] = read-out: OPM-2 10% FBS IC50 IP, OPM-2 cells, 10% FBS, 16 h, CellTiter-Glo

Row | SMILES | IC50 [1, 3] [nM] | IC50 [2] [nM] | IC50 [1, 4] [nM]
1 | C[C@@H]1[C@@H](C)CCC[C@](O)(CO)[C@@H]2CC[C@H]2CN2C[C@@]3(CCCc4cc(Cl)ccc43)COc3ccc(cc32)C(=O)NS1(=O)=O (single isomer, unassigned) [Example 100052] | 424 | 0.191 | –
2 | C[C@@H]1[C@@H](C)CCC[C@]2(COC(=O)O2)[C@@H]2CC[C@H]2CN2C[C@@]3(CCCc4cc(Cl)ccc43)COc3ccc(cc32)C(=O)NS1(=O)=O (single isomer, unassigned) [Example 100055] | 4630 | 1.27 | –
3 | C[C@@H]1[C@@H](C)CCC[C@](O)(CC#N)[C@@H]2CC[C@H]2CN2C[C@@]3(CCCc4cc(Cl)ccc43)COc3ccc(cc32)C(=O)NS1(=O)=O (single isomer, unassigned) [Example 100080] | 818 | 0.61 | –
4 | C[C@@H]1[C@@H](C)CCC[C@@](O)(CC#N)[C@@H]2CC[C@H]2CN2C[C@@]3(CCCc4cc(Cl)ccc43)COc3ccc(cc32)C(=O)NS1(=O)=O (single isomer, unassigned) [Example 100081] | 5930 | 7.33 | –
5 | CCN(CC)C(=O)C[C@@]1(O)/C=C/C[C@H](C)[C@@H](C)S(=O)(=O)NC(=O)c2ccc3c(c2)N(C[C@@H]2CC[C@H]21)C[C@@]1(CCCc2cc(Cl)ccc21)CO3 (single isomer, unassigned) [Example 100084] | 1490 | 0.745 | –
6 | C[C@@H]1[C@@H](C)CCC[C@](O)(CC(=O)N2CCOCC2)[C@@H]2CC[C@H]2CN2C[C@@]3(CCCc4cc(Cl)ccc43)COc3ccc(cc32)C(=O)NS1(=O)=O (single isomer, unassigned) [Example 100087] | 187 | 0.864 | –
7 | CNC(=O)C[C@@]1(O)CCC[C@H](C)[C@@H](C)S(=O)(=O)NC(=O)c2ccc3c(c2)N(C[C@@H]2CC[C@H]21)C[C@@]1(CCCc2cc(Cl)ccc21)CO3 (single isomer, unassigned) [Example 100103] | 778 | 0.325 | –
8 | C[C@@H]1[C@@H](C)C/C=C/[C@](O)([C@@H](C)C(=O)OC(C)(C)C)[C@@H]2CC[C@H]2CN2C[C@@]3(CCCc4cc(Cl)ccc43)COc3ccc(cc32)C(=O)NS1(=O)=O (single isomer, unassigned) [Example 100110] | 686 | 1.48 | –
9 | C[C@@H]1[C@@H](C)CCC[C@]2(OCCS2)[C@@H]2CC[C@H]2CN2C[C@@]3(CCCc4cc(Cl)ccc43)COc3ccc(cc32)C(=O)NS1(=O)=O (single isomer, unassigned) [Example 100116] | 5940 | 3.78 | –
10 | C[C@@H]1[C@@H](C)CCC[C@](O)([C@@H](C)C(=O)N(C)C)[C@@H]2CC[C@H]2CN2C[C@@]3(CCCc4cc(Cl)ccc43)COc3ccc(cc32)C(=O)NS1(=O)=O (single isomer, unassigned) [Example 100117] | – | 2.4 | 3170
11 | C[C@@H]1[C@@H](C)CCC[C@](O)([C@@H](C)C(=O)N(C)C)[C@@H]2CC[C@H]2CN2C[C@@]3(CCCc4cc(Cl)ccc43)COc3ccc(cc32)C(=O)NS1(=O)=O (single isomer, unassigned) [Example 100118] | – | 4.44 | 3950
12 | C[C@@H]1[C@@H](C)CCC[C@](O)([C@@H](C)C(=O)N(C)C)[C@@H]2CC[C@H]2CN2C[C@@]3(CCCc4cc(Cl)ccc43)COc3ccc(cc32)C(=O)NS1(=O)=O (single isomer, unassigned) [Example 100119] | – | 1.72 | 1570
13 | C[C@H](C(=O)O)[C@@]1(O)/C=C/C[C@H](C)[C@@H](C)S(=O)(=O)NC(=O)c2ccc3c(c2)N(C[C@@H]2CC[C@H]21)C[C@@]1(CCCc2cc(Cl)ccc21)CO3 (single isomer, unassigned) [Example 100120] | – | 0.067 | 635
14 | C[C@H](C(=O)O)[C@@]1(O)/C=C/C[C@H](C)[C@@H](C)S(=O)(=O)NC(=O)c2ccc3c(c2)N(C[C@@H]2CC[C@H]21)C[C@@]1(CCCc2cc(Cl)ccc21)CO3 (single isomer, unassigned) [Example 100121] | – | 0.056 | 2530
15 | C[C@H](C(=O)O)[C@@]1(O)/C=C/C[C@H](C)[C@@H](C)S(=O)(=O)NC(=O)c2ccc3c(c2)N(C[C@@H]2CC[C@H]21)C[C@@]1(CCCc2cc(Cl)ccc21)CO3 (single isomer, unassigned) [Example 100122] | – | 0.098 | 1190
16 | C[C@H](C(=O)O)[C@@]1(O)/C=C/C[C@H](C)[C@@H](C)S(=O)(=O)NC(=O)c2ccc3c(c2)N(C[C@@H]2CC[C@H]21)C[C@@]1(CCCc2cc(Cl)ccc21)CO3 (single isomer, unassigned) [Example 100123] | – | 0.092 | 2660
17 | C[C@@H]1[C@@H](C)C/C=C/[C@@](O)([C@@H](C)C(=O)N(C)C)[C@@H]2CC[C@H]2CN2C[C@@]3(CCCc4cc(Cl)ccc43)COc3ccc(cc32)C(=O)NS1(=O)=O (single isomer, unassigned) [Example 100124] | – | 0.323 | 270

Row | SMILES | IC50 [1, 3] [nM] | IC50 [2] [nM] | IC50 [1, 4] [nM]
18 | C[C@@H]1[C@@H](C)C/C=C/[C@@](O)([C@@H](C)C(=O)N(C)C)[C@@H]2CC[C@H]2CN2C[C@@]3(CCCc4cc(Cl)ccc43)COc3ccc(cc32)C(=O)NS1(=O)=O (single isomer, unassigned) [Example 100126] | – | 0.183 | 41
19 | C=CC[C@@]1(O)/C=C/C[C@H](C)[C@@H](C)S(=O)(=O)NC(=O)c2ccc3c(c2)N(C[C@@H]2CC[C@H]21)C[C@@]1(CCCc2cc(Cl)ccc21)CO3 (single isomer, unassigned) [Example 100131] | 144 | 0.163 | –
20 | C[C@@H]1[C@@H](C)CCC[C@](O)(CC(=O)N(C)C(C)(C)C)[C@@H]2CC[C@H]2CN2C[C@@]3(CCCc4cc(Cl)ccc43)COc3ccc(cc32)C(=O)NS1(=O)=O (single isomer, unassigned) [Example 100142] | – | 0.717 | 663
21 | C[C@@H]1[C@@H](C)CCC[C@](O)(CC(=O)N(C)C(C)(C)C)[C@@H]2CC[C@H]2CN2C[C@@]3(CCCc4cc(Cl)ccc43)COc3ccc(cc32)C(=O)NS1(=O)=O (single isomer, unassigned) [Example 100143] | – | 1.87 | 3270
22 | C[C@@H]1[C@@H](C)C/C=C/[C@@]2(CCCO2)[C@@H]2CC[C@H]2CN2C[C@@]3(CCCc4cc(Cl)ccc43)COc3ccc(cc32)C(=O)NS1(=O)=O (single isomer, unassigned) [Example 100159] | 591 | 0.559 | –
23 | C[C@@H]1[C@@H](C)CCC[C@](O)(CC(=O)N2CCN(C)CC2)[C@@H]2CC[C@H]2CN2C[C@@]3(CCCc4cc(Cl)ccc43)COc3ccc(cc32)C(=O)NS1(=O)=O (single isomer, unassigned) [Example 100168] | 196 | 0.249 | –
24 | C[C@@H]1[C@@H](C)CCC[C@](O)(CC(=S)N(C)C)[C@@H]2CC[C@H]2CN2C[C@@]3(CCCc4cc(Cl)ccc43)COc3ccc(cc32)C(=O)NS1(=O)=O (single isomer, unassigned) [Example 100172] | – | 1.29 | 1570
25 | C[C@@H]1[C@@H](C)CCC[C@](O)(CC(=S)N(C)C)[C@@H]2CC[C@H]2CN2C[C@@]3(CCCc4cc(Cl)ccc43)COc3ccc(cc32)C(=O)NS1(=O)=O (single isomer, unassigned) [Example 100173] | – | 0.539 | 379
26 | C[C@@H]1[C@@H](C)C/C=C/[C@@](O)(c2ccccn2)[C@@H]2CC[C@H]2CN2C[C@@]3(CCCc4cc(Cl)ccc43)COc3ccc(cc32)C(=O)NS1(=O)=O (single isomer, unassigned) [Example 100181] | 226 | 0.537 | –
27 | C[C@@H]1[C@@H](C)C/C=C/[C@](O)(c2cccnc2)[C@@H]2CC[C@H]2CN2C[C@@]3(CCCc4cc(Cl)ccc43)COc3ccc(cc32)C(=O)NS1(=O)=O (single isomer, unassigned) [Example 100183] | 2240 | 1.34 | –
28 | CO[C@]1(C)CCC[C@H](C)[C@@H](C)S(=O)(=O)NC(=O)c2ccc3c(c2)N(C[C@@H]2CC[C@H]21)C[C@@]1(CCCc2cc(Cl)ccc21)CO3 (single isomer, unassigned) [Example 100211] | – | 1.44 | 4780
29 | CO[C@]1(C)CCC[C@H](C)[C@@H](C)S(=O)(=O)NC(=O)c2ccc3c(c2)N(C[C@@H]2CC[C@H]21)C[C@@]1(CCCc2cc(Cl)ccc21)CO3 (single isomer, unassigned) [Example 100212] | – | 0.901 | 1620
30 | C[C@@H]1[C@@H](C)CCC[C@]2(CCO2)[C@@H]2CC[C@H]2CN2C[C@@]3(CCCc4cc(Cl)ccc43)COc3ccc(cc32)C(=O)NS1(=O)=O (single isomer, unassigned) [Example 100229] | 1490 | 0.356 | –
31 | C[C@@H]1[C@@H](C)C/C=C/[C@](O)(CC(=O)N(C)c2ccccc2)[C@@H]2CC[C@H]2CN2C[C@@]3(CCCc4cc(Cl)ccc43)COc3ccc(cc32)C(=O)NS1(=O)=O (single isomer, unassigned) [Example 100248] | 6680 | 11.1 | –
32 | C[C@@H]1[C@@H](C)CCC[C@@](O)(Cc2nccs2)[C@@H]2CC[C@H]2CN2C[C@@]3(CCCc4cc(Cl)ccc43)COc3ccc(cc32)C(=O)NS1(=O)=O (single isomer, unassigned) [Example 100250] | – | 0.136 | 82
33 | C[C@@H]1[C@@H](C)CCC[C@@](O)(Cc2nccs2)[C@@H]2CC[C@H]2CN2C[C@@]3(CCCc4cc(Cl)ccc43)COc3ccc(cc32)C(=O)NS1(=O)=O (single isomer, unassigned) [Example 100251] | – | 3.29 | 3730
34 | C=CC[C@]1(O)CCC[C@H](C)[C@@H](C)S(=O)(=O)NC(=O)c2ccc3c(c2)N(C[C@@H]2CC[C@H]21)C[C@@]1(CCCc2cc(Cl)ccc21)CO3 (single isomer, unassigned) [Example 100266] | – | 0.292 | 571
